Each structure is given as a SMILES string.

IC50, Emax and EC50 data for five molecules are collected here from patent US20240335451A1, “ACRYLAMIDE DERIVATIVES USEFUL AS ANTI-INFLAMMATORY AGENTS” (Sitryx Therapeutics Limited, priority 2021, published 2024).

Format in all cases: cell-based
The test system of assay [1] is IL-1β cytokine output from THP-1s. As to the kind of experiment: THP-1 AlphaLISA IL-1β cytokine assay (differentiated THP-1 cells, LPS then nigericin). To be noted: Homo sapiens, 30 min pre-incubation, LPS 24 hr, nigericin 1 hour. As for the experimental part:
(§1) Measuring Inhibitory Effects on IL-1β and IL-6 Cytokine Output from THP-1s
(§2) The cytokine inhibition profiles of compounds of formula (I) were determined in a differentiated THP-1 cell assay. All assays were performed in RPMI-1640 growth medium (Gibco), supplemented with 10% fetal bovine serum (FBS; Gibco), 1% penicillin-streptomycin and 1% sodium pyruvate unless specified otherwise. The IL-1β and IL-6 cytokine inhibition assays were each run in a background of differentiated THP-1 cells as described below. All reagents described were from Sigma-Aldrich unless specified otherwise. Compounds were prepared as 10 mM DMSO stocks.
(§3) THP-1 cells were expanded as a suspension up to 80% confluence in appropriate growth medium. Cells were harvested, suspended, and treated with an appropriate concentration of phorbol 12-myristate 13-acetate (PMA) over a 72 hr period (37° C./5% CO2).
(§4) Following 72 hrs of THP-1 cell incubation, cellular medium was removed and replaced with fresh growth media containing 1% of FBS. Working concentrations of compounds were prepared separately in 10% FBS treated growth medium and pre-incubated with the cells for 30 minutes (37° C./5% CO2). Following the 30 minute compound pre-incubation, THP-1s were treated with an appropriate concentration of LPS and the THP-1s were subsequently incubated for a 24 hr period (37° C./5% CO2). An appropriate final concentration of Nigericin was then dispensed into the THP-1 plates and incubated for 1 hour (37° C./5% CO2) before THP-1 supernatants were harvested and collected in separate polypropylene 96-well holding plates.
(§5) Reagents from each of the IL-1β and IL-6 commercial kits (Perkin Elmer) were prepared and run according to the manufacturer's instructions. Subsequently, fluorescence signal detection in a microplate reader was measured (EnVision® Multilabel Reader, Perkin Elmer).
(§6) Percentage inhibition was calculated per cytokine by normalizing the sample data to the high and low controls used within each plate (+/−LPS respectively).
(Bead proximity is the source of the signal in Alpha formats.)

For assay [2], the system named is IL-6 cytokine output from THP-1s. Nature of the assay: THP-1 AlphaLISA IL-6 cytokine assay (differentiated THP-1 cells, LPS then nigericin). To be noted: Homo sapiens, 30 min pre-incubation, LPS 24 hr, nigericin 1 hour. How it is done:
as §1, §2, §3, §4, §5, §6

For assay [3], the system named is NRF2 (nuclear factor erythroid 2-related factor 2). As to the kind of experiment: NRF2 activation assay (DiscoverX PathHunter NRF2 translocation kit, U2OS cells). To be noted: Homo sapiens; for Emax: U2OS, normalised to dimethyl fumarate high control; for EC50: U2OS PathHunter cells, 6 hours.
Setting [4] is: +GSH (30 minute compound/GSH pre-incubation).

Regarding `C=C(CC(=O)OC1(c2cc(Cl)cc(Cl)c2)CCC1)C(N)=O` [Example 20, 1-(3,5-dichlorophenyl)cyclobutyl 3-carbamoylbut-3-enoate], the values for the IC50 in assay [1] and in assay [2] were 13.2 µM and 8.3 µM, respectively. Also, the Emax (as a rule, the maximal effect, on the per cent scale that the assay sets) in assay [3] (+GSH) worked out at 28%; in assay [3] (−GSH), 156%. Moreover, the EC50 (commonly the concentration giving half of the maximal effect) in assay [3] (setting [4]) was > 100 µM; in assay [3] (−GSH), 35.2 µM.
Consider `C=C(CC(=O)OC1(c2ccc(C(F)(F)F)c(F)c2)CCC1)C(=O)NC` [Example 22, 1-(3-fluoro-4-(trifluoromethyl)phenyl)cyclobutyl 3-(methylcarbamoyl)but-3-enoate], for which the results for the IC50 in assay [1] and in assay [2] were 11 µM and 9.4 µM, respectively. Also, the Emax in assay [3] (+GSH) amounted to 48%; in assay [3] (−GSH) it was 109%. In addition, the EC50 in assay [3] (setting [4]) was > 100 µM; in assay [3] (−GSH), 14.5 µM.
Turning to `C=C(Cc1nc(C2(c3ccc(SC(F)(F)F)cc3)CC2)no1)C(=O)NCC(=O)O` [Example 27, (2-((3-(1-(4-((trifluoromethyl)thio)phenyl)cyclopropyl)-1,2,4-oxadiazol-5-yl)methyl)acryloyl)glycine], the IC50 (in general, the midpoint of a concentration-inhibition curve) in assay [1] is 9.5 µM; in assay [2], > 100 µM. The Emax in assay [3] (+GSH) came out at 20%; in assay [3] (−GSH) it was 26%. In addition, the concentration giving a half-maximal response (EC50) in assay [3] (setting [4]) and in assay [3] (−GSH) was > 100 µM throughout.
For the molecule `C=C(Cc1nc(C2(c3ccc(SC(F)(F)F)cc3)CC2)no1)C(=O)NC(C(=O)O)C(F)(F)F` (stereo not drawn) [Example 28, 3,3,3-trifluoro-2-(2-((3-(1-(4-((trifluoromethyl)thio)phenyl)cyclopropyl)-1,2,4-oxadiazol-5-yl)methyl)acrylamido)propanoic acid], the IC50 in assay [1] is 7.9 µM; in assay [2] it was 16.2 µM. The maximal effect (Emax) in assay [3] (+GSH) turned out to be 34%; in assay [3] (−GSH) it was 67%. Further, the EC50 was > 100 µM in assay [3] (setting [4]) and 31.8 µM in assay [3] (−GSH).
Regarding `C=C(CC(=O)OC)C(=O)OC` [dimethyl itaconate, reference compound], the IC50 in assay [1] and in assay [2] was > 100 µM in each case. Also, the Emax in assay [3] (−GSH) amounted to 126%.
